Experimental data as given in US20250042853A1, “BICYCLIC COMPOUND AND APPLICATION THEREOF” (BETTA PHARMACEUTICALS CO., LTD, priority 2021, published 2025).

Test system: VEGFA
Assay: VEGFA ELISA assay (IC50)
Format: cell-based
Conditions: 786-O cells, 24 h, VEGFA in culture supernatant by ELISA
Procedure: 786-O cells in the logarithmic growth phase were inoculated into a 96-well plate at a cell concentration of 65,000 cells per ml of culture liquid, 180 μL per well. The compounds were diluted to the corresponding concentrations, and 20 μL of compound solutions of various concentrations were added to the corresponding cell wells, so that the final concentrations of the compounds were 1.5 nM, 4.6 nM, 13.7 nM, 41.2 nM, 123.5 nM, 370.4 nM, 1111.1 nM, 3333.3 nM, and 10000 nM, respectively. After culturing for 24 h, the cell culture supernatant was collected and the VEGFA concentration was determined using an ELISA kit (purchased from Abeam). Finally, the reaction was terminated and the absorbance value of each well was measured at a wavelength of 450 nm using an ELISA reader. The IC50 values were calculated by GraphPadPrism. CellTiter-Glo reagent was used to measure cell viability.

[1] = Homo sapiens, 786-0, class symbols

IC50 (Homo sapiens, 786-0) [µM]	IC50 [1] [µM]	SMILES	other results
0.03		N#Cc1ccc(-n2cc(S(=O)(=O)C(F)(F)F)c3c2CCC[C@H]3O)cc1C(F)F [Example 65, (R)-2-(difluoromethyl)-4-(4-hydroxyl-3-((trifluoromethyl)sulfonyl)-4,5,6,7-tetrahydro-1H-indol-1-yl)benzonitrile]	
	≤ 0.5	N#Cc1ccc(-n2cc(S(=O)(=O)CF)c3c2CCC(F)(F)[C@H]3O)cc1C#N [Example 45, (S)-4-(5,5-difluoro-3-((fluoromethyl)sulfonyl)-4-hydroxyl-4,5,6,7-tetrahydro-1H-indol-1-yl)phthalonitrile]	
1.62		CCOC(=O)C(F)(F)c1cn(-c2ccc(F)c(C(F)F)c2)c2c1[C@H](O)C(F)(F)CC2 [Example 48, ethyl (S)-2-(1-(3-(difluoromethyl)-4-fluorophenyl)-5,5-difluoro-4-hydroxyl-4,5,6,7-tetrahydro-1H-indol-3-yl)-2,2-difluoroacetate]	
1.25		O[C@H]1c2c(-c3nccs3)cn(-c3ccc(F)c(C(F)F)c3)c2CCC1(F)F [Example 51, (S)-1-(3-(difluoromethyl)-4-fluorophenyl)-5,5-difluoro-3-(thiazol-2-yl)-4,5,6,7-tetrahydro-1H-indol-4-ol]	
	≤ 0.5	O=S(=O)(CF)c1cn(-c2ccc(F)c(C(F)F)c2)c2c1[C@@H](O)C(F)(F)CC2 [Example 61, (R)-1-(3-(difluoromethyl)-4-fluorophenyl)-5,5-difluoro-3-((fluoromethyl)sulfonyl)-4,5,6,7-tetrahydro-1H-indol-4-ol]	
0.015		N#Cc1cc(-n2c(F)c(-c3cccs3)c3c2CCC(F)(F)C3O)ccc1F (stereo not shown) [Example 106, 2-fluoro-5-(2,5,5-trifluoro-4-hydroxyl-3-(thien-2-yl)-4,5,6,7-tetrahydro-1H-indol-1-yl)benzonitrile]	
0.639		N#CC1(S(=O)(=O)c2cn(-c3ccc(F)c(C(F)F)c3)c3c2[C@H](O)C(F)(F)CC3)CC1 [Example 58, (S)-1-((1-(3-(difluoromethyl)-4-fluorophenyl)-5,5-difluoro-4-hydroxyl-4,5,6,7-tetrahydro-1H-indol-3-yl)sulfonyl)cyclopropane-1-nitrile]	
	0.5 to 1.5	O[C@H]1c2c(C(F)(F)F)cn(-c3ccc(F)cc3F)c2CCC1(F)F [Example 72, (S)-1-(2,4-difluorophenyl)-5,5-difluoro-3-(trifluoromethyl)-4,5,6,7-tetrahydro-1H-indol-4-ol]	
0.05		O=S(=O)(c1cn(-c2ccc(F)c(C(F)F)c2)c2c1[C@H](O)[C@H](F)CC2)C(F)F [Example 63, (4S,5R)-1-(3-(difluoromethyl)-4-fluorophenyl)-3-((difluoromethyl)sulfonyl)-5-fluoro-4,5,6,7-tetrahydro-1H-indol-4-ol]	
0.033		O=S(=O)(c1cn(-c2ccc(F)c(C(F)F)c2)c2c1[C@H](O)[C@@H](F)CC2)C(F)F [Example 64, (4S,5S)-1-(3-(difluoromethyl)-4-fluorophenyl)-3-((difluoromethyl)sulfonyl)-5-fluoro-4,5,6,7-tetrahydro-1H-indol-4-ol]	
0.008		N#CC(F)S(=O)(=O)c1cn(-c2ccc(F)c(C(F)F)c2)c2c1[C@H](O)C(F)(F)CC2 (stereo partly drawn) [Example 47, 2-(((S)-1-(3-(difluoromethyl)-4-fluorophenyl)-5,5-difluoro-4-hydroxyl-4,5,6,7-tetrahydro-1H-indol-3-yl)sulfonyl)-2-fluoroacetonitrile]	
	≤ 0.5	CC(C#N)S(=O)(=O)c1cn(-c2ccc(F)c(C(F)F)c2)c2c1[C@H](O)C(F)(F)CC2 (stereo partly drawn) [Example 57, 2-(((S)-1-(3-(difluoromethyl)-4-fluorophenyl)-5,5-difluoro-4-hydroxyl-4,5,6,7-tetrahydro-1H-indol-3-yl)sulfonyl) propanenitrile]	

Second part, the compound before the results:

SMILES	IC50 (Homo sapiens, 786-0) [µM]	IC50 [1] [µM]	other results
O=S(=O)(c1cn(-c2ccc(F)c(C(F)(F)F)c2)c2c1[C@H](O)C(F)(F)CC2)C(F)F [Example 21, (S)-3-((difluoromethyl)sulfonyl)-5,5-difluoro-1-(4-fluoro-3-(trifluoromethyl)phenyl)-4,5,6,7-tetrahydro-1H-indol-4-ol]	0.012		
N#Cc1cc(-n2cc(S(=O)(=O)C(F)F)c3c2CCC(F)(F)[C@H]3O)ccc1F [Example 4, (S)-5-(3-((difluoromethyl)sulfonyl)-5,5-difluoro-4-hydroxyl-4,5,6,7-tetrahydro-1H-indol-1-yl)-2-fluorobenzonitrile]	0.098		
N#Cc1ccc(-n2cc(S(=O)(=O)C(F)F)c3c2CCC(F)(F)[C@H]3O)cc1C#N [Example 39, (S)-4-(3-((difluoromethyl)sulfonyl)-5,5-difluoro-4-hydroxyl-4,5,6,7-tetrahydro-1H-indol-1-yl)phthalonitrile]	0.14		
N#Cc1cc(-n2cc(S(=O)(=O)C(F)(F)F)c3c2CCC(F)(F)[C@H]3O)ccc1Cl [Example 40, (S)-2-chloro-5-(5,5-difluoro-4-hydroxyl-3-((trifluoromethyl)sulfonyl)-4,5,6,7-tetrahydro-1H-indol-1-yl)benzonitrile]		≤ 0.5	
N#CCS(=O)(=O)c1cn(-c2ccc(F)c(C(F)F)c2)c2c1[C@H](O)C(F)(F)CC2 [Example 19, (S)-2-((1-(3-(difluoromethyl)-4-fluorophenyl)-5,5-difluoro-4-hydroxyl-4,5,6,7-tetrahydro-1H-indol-3-yl)sulfonyl)acetonitrile]		0.5 to 1.5	
O=S(=O)(c1cn(-c2ccc(F)c(Cl)c2)c2c1C(O)C(F)(F)CC2)C(F)F (stereo not shown) [Example 25, 1-(3-chloro-4-fluorophenyl)-3-((difluoromethyl)sulfonyl)-5,5-difluoro-4,5,6,7-tetrahydro-1H-indol-4-ol]	0.063		
CS(=O)(=O)c1cn(-c2ccc(F)c(C(F)F)c2)c2c1[C@H](O)C(F)(F)CC2 [Example 5, (S)-1-(3-(difluoromethyl)-4-fluorophenyl)-5,5-difluoro-3-(methylsulfonyl)-4,5,6,7-tetrahydro-1H-indol-4-ol]	0.072		
N#Cc1ccc(-n2cc(S(=O)(=O)C(F)F)c3c2CCC(F)(F)[C@H]3O)cc1C(F)(F)F [Example 34, (S)-4-(3-((difluoromethyl)sulfonyl)-5,5-difluoro-4-hydroxyl-4,5,6,7-tetrahydro-1H-indol-1-yl)-2-(trifluoromethyl)benzonitrile]		≤ 0.5	
N#Cc1cc(-n2cc(C(F)(F)C(N)=O)c3c2CCC(F)(F)C3O)ccc1F (stereo not shown) [Example 15, 2-(1-(3-cyano-4-fluorophenyl)-5,5-difluoro-4-hydroxyl-4,5,6,7-tetrahydro-1H-indol-3-yl)-2,2-difluoroacetamide]		0.5 to 1.5	
N#Cc1ccc(-n2cc(S(=O)(=O)C(F)(F)F)c3c2CCC(F)(F)[C@H]3O)cc1C(F)(F)F [Example 31, (S)-4-(5,5-difluoro-4-hydroxyl-3-((trifluoromethyl)sulfonyl)-4,5,6,7-tetrahydro-1H-indol-1-yl)-2-(trifluoromethyl)benzonitrile]	0.021		
N#Cc1ccc(-n2cc(S(=O)(=O)CF)c3c2CCC(F)(F)[C@H]3O)cc1C(F)F [Example 44, (S)-4-(5,5-difluoro-3-((fluoromethyl)sulfonyl)-4-hydroxyl-4,5,6,7-tetrahydro-1H-indol-1-yl)-2-(difluoromethyl) benzonitrile]		≤ 0.5	
CS(=O)(=NC#N)c1cn(-c2ccc(F)c(C#N)c2)c2c1[C@H](O)C(F)(F)CC2 (stereo partly drawn) [Example 18, N—(((S)-1-(3-cyano-4-fluorophenyl)-5,5-difluoro-4-hydroxyl-4,5,6,7-tetrahydro-1H-indol-3-yl)(methyl)(oxo)-16-sulfino)cyanamide]			IC50 (class symbols): ≤ 0.5 µM
N#Cc1cc(-n2cc(S(=O)(=O)C(F)F)c3c2CCC(F)(F)[C@H]3O)ccc1Cl [Example 28, (S)-2-chloro-5-(3-((difluoromethyl)sulfonyl)-5,5-difluoro-4-hydroxyl-4,5,6,7-tetrahydro-1H-indol-1-yl)benzonitrile]	0.118		
O=S(=O)(c1cn(-c2ccc(F)c(C(F)F)c2)c2c1[C@@H](O)C(F)(F)CC2)C(F)F [Example 26, (R)-1-(3-(difluoromethyl)-4-fluorophenyl)-3-((difluoromethyl)sulfonyl)-5,5-difluoro-4,5,6,7-tetrahydro-1H-indol-4-ol]	0.628		
OC1c2c(C(F)(F)F)cn(-c3ccc(F)c(CF)c3)c2CCC1(F)F (stereo not shown) [Example 2, 5,5-difluoro-1-(4-fluoro-3-(fluoromethyl)phenyl)-3-(trifluoromethyl)-4,5,6,7-tetrahydro-1H-indol-4-ol]	0.0083		
CCS(=O)(=O)c1cn(-c2ccc(F)c(C(F)(F)F)c2)c2c1[C@H](O)C(F)(F)CC2 [Example 16, (S)-3-(ethylsulfonyl)-5,5-difluoro-1-(4-fluoro-3-(trifluoromethyl)phenyl)-4,5,6,7-tetrahydro-1H-indol-4-ol]	0.537		
O=S(=O)(CF)c1cn(-c2ccc(F)c(C(F)(F)F)c2)c2c1[C@H](O)C(F)(F)CC2 [Example 30, (S)-5,5-difluoro-1-(4-fluoro-3-(trifluoromethyl)phenyl)-3-((fluoromethyl)sulfonyl)-4,5,6,7-tetrahydro-1H-indol-4-ol]	0.045		
N#Cc1cc(-n2cc(C(F)(F)C(F)(F)F)c3c2CCC(F)(F)C3O)ccc1F (stereo not shown) [Example 9, 5-(5,5-difluoro-4-hydroxyl-3-(perfluoroethyl)-4,5,6,7-tetrahydro-1H-indol-1-yl)-2-fluorobenzonitrile]	0.047		
N#Cc1cc(-n2cc(S(=O)(=O)C(F)(F)F)c3c2CCC(F)(F)[C@H]3O)ccc1F [Example 10, (S)-5-(5,5-difluoro-4-hydroxyl-3-((trifluoromethyl)sulfonyl)-4,5,6,7-tetrahydro-1H-indol-1-yl)-2-fluorobenzonitrile]		≤ 0.5	
